Laboratory results reported in the NIST ThermoML archive (doi:10.1021/acs.jced.7b01049).

Experiment: xn = mol fraction of the nth substance listed
Details: for surface tension liquid-gas / mass density: discharge crucible method; for mass density / viscosity: 100 kPa, Liquid; for viscosity: discharge crucible

[Pb] [lead] + [Sb]
Details | mass density [kg/m3] | surface tension liquid-gas [mN/m] | viscosity [mPa·s]
573 K, x2 = 0.1675 | 10206 | 437.1 | 2.565
623 K, x2 = 0.1675 | 10142 | 433.7 | 2.262
673 K, x2 = 0.1675 | 10087 | 429.9 | 1.999
673 K, x2 = 0.4 | 9263 | 418.3 | 1.873
723 K, x2 = 0.1675 | 10019 | 426.6 | 1.836
723 K, x2 = 0.4 | 9201 | 414.6 | 1.721
773 K, x2 = 0.1675 | 9963 | 422.8 | 1.694
773 K, x2 = 0.4 | 9143 | 411.5 | 1.573
773 K, x2 = 0.6 | 8244 | 400.5 | 1.561
823 K, x2 = 0.1675 | 9905 | 419.1 | 1.583
823 K, x2 = 0.4 | 9095 | 407.8 | 1.475
823 K, x2 = 0.6 | 8185 | 397.1 | 1.449
873 K, x2 = 0.1675 | 9862 | 415.6 | 1.495
873 K, x2 = 0.4 | 9042 | 403.9 | 1.358
873 K, x2 = 0.6 | 8138 | 393.9 | 1.333
873 K, x2 = 0.9 | 6977 | 376.2 | 1.539
923 K, x2 = 0.1675 | 9814 | 411.9 | 1.425
923 K, x2 = 0.4 | 8991 | 400.2 | 1.266
923 K, x2 = 0.6 | 8098 | 390.7 | 1.211
923 K, x2 = 0.9 | 6938 | 372.6 | 1.357
973 K, x2 = 0.9 | 6892 | 368.6 | 1.212
1023 K, x2 = 0.9 | 6856 | 364.4 | 1.118
